What was measured:
MP2 tumor cells [1] = test: Cell count of viable cells (Trypan Blue, light microscope); assay type: cell-based, human; settings: different concentrations of WIN 55,212-2, 24-48 hours
From the text: (§1) The number of viable cells was counted under light microscope using Trypan Blue staining. Compiled data from three experiments performed is shown.
(§2) The number of viable cells was counted under light microscope using Trypan Blue staining (Sigma, MO, USA).

PL-12 tumor cells [2] = test: as above; assay type: cell-based, human; settings: different concentrations of WIN 55,212-2, 24-48 hours
From the text: as §1, §2

PL-12 tumor cells [3] = test: Cell death assay (PI staining, flow cytometry); assay type: cell-based, human; settings: 25-100 μM, 24-48 hours
OSCCs [4] = test: Microscopy of morphology and viability; assay type: cell-based, human
Method: (§3) Chemical structure of WIN 55,212-2 (FIG. 7A). […] OSCCs and OSCSCs were treated with CDDP (50 μg/mL) and different concentrations of WIN 55,212-2 for 24 hours before the microscopic images were taken. Scale bar=50 μm (FIG. 7B).

OSCSCs [5] = test: Microscopy of morphology and viability; assay type: cell-based, human; settings: WIN 55,212-2, even at the lowest concentrations, 24 h
Method: as §3

MP2 tumor cells [6] = test: Microscopy of morphology and viability; assay type: cell-based, human; settings: different concentrations of WIN 55,212-2, 24 hours
Method: (§4) MP2 and PL-12 tumor cells were treated with CDDP (50 μg/mL) and different concentrations of WIN 55,212-2 for 24 hours before the microscopic images were taken. Scale bar=50 μm.

PL-12 tumor cells [7] = test: Microscopy of morphology and viability; assay type: cell-based, human; settings: different concentrations of WIN 55,212-2, 24 hours
Method: as §4

NK cells = test: NK cell cytotoxicity in humanized BLT mice (4-hr Chromium release assay); assay type: in vivo; settings: hu-BLT mice, every 2 days for 3 weeks; WIN 55,212-2 2 mg/kg IP; IL-15 5 μg/mice IP; preliminary experiments
Method: Humanized BLT mice (hu-BLT; human-bone marrow/liver/thymus) were fed with, AJ2 (5×10^9 CFU/mice, every 2 days, Oral administration), WIN 55,212-2 (2 mg/kg, every 2 days, IP) and/or IL-15 (5 μg/mice, every 2 days, IP). After 3 weeks of treatment, immune cells were collected from peripheral blood, bone marrow and spleen, and CD3+ T cells were isolated from splenocytes with EasySep™ Human CD3 positive selection kit II (StemCell Tech.). PBMCs (0.5×10^6 cells) obtained from the peripheral blood were treated with IL-2 (1000 U/ml) and/or anti-CD16 antibody (BioLegend) (3 μg/ml) for 3 days, after which the cells were counted and different numbers of E:T ratios were used for the assessment of cytotoxicity using 4-hr Chromium release assay (FIG. 1A and FIG. 1B). The percentage specific cytotoxicity was calculated using the following formula (% cytotoxicity=(Experimental cpm/spontaneous cpm)/(total cpm−spontaneous cpm)) and the lytic unit 30 (Lu30/10^6) was calculated by using the inverse of the number of effector cells needed to lyse 30% of tumor target cells×100. Killing per % NK cells was determined by dividing the total Lytic unit 30 by the percentage of NK cells in each sample (FIG. 1A and FIG. 1B). […]

IFN-γ secretion = IFN-γ secretion of immune cells in humanized BLT mice (ELISA, ELISpot); assay type: in vivo; settings: hu-BLT mice
Method: Humanized BLT mice (hu-BLT; human-bone marrow/liver/thymus) were fed with, AJ2 (5×10^9 CFU/mice, every 2 days, Oral administration), WIN 55,212-2 (2 mg/kg, every 2 days, IP) and/or IL-15 (5 μg/mice, every 2 days, IP). After 3 weeks of treatment, immune cells were collected from peripheral blood, bone marrow and spleen, and CD3+ T cells were isolated from splenocytes with EasySep™ Human CD3 positive selection kit II (StemCell Tech.). PBMCs (0.5×10^6 cells) obtained from the peripheral blood were treated with IL-2 (1000 U/ml) and/or anti-CD16 antibody (BioLegend) (3 μg/ml) for 3 days, after which the cells were counted and different numbers of E:T ratios were used for the assessment of cytotoxicity using 4-hr Chromium release assay (FIG. 1A and FIG. 1B). The percentage specific cytotoxicity was calculated using the following formula (% cytotoxicity=(Experimental cpm/spontaneous cpm)/(total cpm−spontaneous cpm)) and the lytic unit 30 (Lu30/10^6) was calculated by using the inverse of the number of effector cells needed to lyse 30% of tumor target cells×100. Killing per % NK cells was determined by dividing the total Lytic unit 30 by the percentage of NK cells in each sample (FIG. 1A and FIG. 1B). PBMCs (0.5×10^6 cells) obtained from the blood were treated with IL-2 (1000 U/ml) and/or anti-CD16 antibody (BioLegend) (3 μg/ml) for 24 hours, after which the supernatants were collected to measure IFN-g secretion using ELISA (BioLegend, San Diego) (FIG. 1C). ELISpot was used to determine the IFN-γ spots in PBMC (FIG. 1D), bone marrow (FIG. 1E), spleen (FIG. 1F) and CD3+ T cells (FIG. 1G).
Humanized BLT mice (hu-BLT; human-bone marrow/liver/thymus) were fed with, AJ2 (5×10^9 CFU/mice, every 2 days, Oral administration), WIN 55,212-2 (2 mg/kg, every 2 days, IP) and/or IL-15 (5 μg/mice, every 2 days, IP). After 3 weeks of treatment, immune cells were collected from peripheral blood, bone marrow and spleen, and CD3+ T cells were isolated from splenocytes with EasySep™ Human CD3 positive selection kit II (StemCell Tech.). PBMCs (0.5×10^6 cells) obtained from the peripheral blood were treated with IL-2 (1000 U/ml) and/or anti-CD16 antibody (BioLegend) (3 μg/ml) for 3 days, after which the cells were counted and different numbers of E:T ratios were used for the assessment of cytotoxicity using 4-hr Chromium release assay (FIG. 6A and FIG. 6B). The percentage specific cytotoxicity was calculated using the following formula (% cytotoxicity=(Experimental cpm/spontaneous cpm)/(total cpm−spontaneous cpm)) and the lytic unit 30 (Lu30/10^6) was calculated by using the inverse of the number of effector cells needed to lyse 30% of tumor target cells×100. Killing per % NK cells was determined by dividing the total Lytic unit 30 by the percentage of NK cells in each sample (FIG. 6A and FIG. 6B). PBMCs (0.5×10^6 cells) obtained from the blood were treated with IL-2 (1000 U/ml) and/or anti-CD16 antibody (BioLegend) (3 μg/ml) for 24 hours, after which the supernatants were collected to measure IFN-g secretion using ELISA (BioLegend, San Diego) (FIG. 6C). ELISpot was used to determine the IFN-γ spots in PBMC (FIG. 6D), bone marrow (FIG. 6E), spleen (FIG. 6F) and CD3+ T cells (FIG. 6G).

OSCCs [8] = test system: OSCCs
OSCSCs [9] = settings: 24 hours, up to 50 μM
PL-12 tumor cells [10] = settings: 48 h, 25-100 μM
[11] = WIN 55,212-2 2 mg/kg IP every 2 days, 3 weeks
[12] = vs untreated controls, 24 hours, up to 50 μM

CS(=O)(=O)O.Cc1c(C(=O)c2cccc3ccccc23)c2cccc3c2n1[C@H](CN1CCOCC1)CO3 [WIN 55,212-2, (R)-(+)-[2,3-Dihydro-5-methyl-3-(4-morpholinylmethyl)pyrrolo[1,2,3-de]-1,4-benzoxazin-6-yl]-1-naphthalenylmethanone mesylate]
decreased numbers of viable cells (MP2 tumor cells [1]): 60-85%
decreased numbers of viable cells (PL-12 tumor cells [2]): 50-70%
percentages of dead cells (PI staining) (PL-12 tumor cells [3]): up to 20%
morphology and viability (OSCCs [4]; 50 μM or higher concentrations of WIN 55,212-2, 24 h): some of the OSCCs still remained viable but others rounded up and detached and were not viable
morphology and viability (OSCCs [4]; low concentrations of WIN 55,212-2, 24 h): remained viable
morphology and attachment (OSCSCs [5]): became detached from the culture plates
morphology and viability (MP2 tumor cells [6]): largely lost their shape and morphology
morphology and viability (PL-12 tumor cells [7]): maintained their morphology and remained viable
cytotoxic function of NK cells in PBMC (NK cells): increased the cytotoxic function of NK cells
IFN-γ immune-spots (ELISpot) in PBMCs (IFN-γ secretion; [11]): augmented
IFN-γ immune-spots (ELISpot) in bone marrow (IFN-γ secretion; [11]): augmented
IFN-γ immune-spots (ELISpot) in purified CD3+ T cells (IFN-γ secretion; [11]): augmented
IFN-γ immune-spots (ELISpot) in spleen (IFN-γ secretion; [11]): augmented
IFN-γ secretion (ELISA, PBMCs) (IFN-γ secretion; every 2 days for 3 weeks, WIN 55,212-2 2 mg/kg IP, IL-15 5 μg/mice IP): augmented IFN-γ secretion
decrease in cell surface MHC class I expression, OSCCs compared with OSCSCs (OSCCs [8]; after WIN 55,212-2 treatment): Significantly greater decrease
cell surface expression of CD44 (OSCCs [8]; [12]): Decreased expression
cell surface expression of CD54 (OSCCs [8]; [12]): Decreased expression
cell surface expression of MHC class I (OSCCs [8]; [12]): Decreased expression
cell surface expression of PD-L1 (OSCCs [8]; [12]): Decreased expression
cell surface expression of CD44 (OSCSCs [9]): decreased
cell surface expression of CD54 (OSCSCs [9]): decreased
cell surface expression of MHC class I (OSCSCs [9]): remained unchanged
cell surface expression of PD-L1 (OSCSCs [9]): decreased
cell surface expression of CD44 (PL-12 tumor cells [10]): Decreased cell surface expression
cell surface expression of CD54 (PL-12 tumor cells [10]): decreased the expression
cell surface expression of MHC class I (PL-12 tumor cells [10]): increased on PL-12 tumor cells
cell surface expression of PD-L1 (PL-12 tumor cells [10]): increased in PL-12

— patent US20250332180A1, “CANNABINOIDS AND IL-15 ACTIVATE NK CELLS” (The Regents of the University of California, priority 2022, published 2025)
